Reference: US12605451B2, “Targeted plasma protein degradation” (Novartis AG, priority 2020, dated 2026)
Read-outs that look alike come from different tables or passages of the source. Positions of bridges follow the written chain, without caps; N, C: chain ends. Non-standard residues stand in square brackets, D forms with d. Residues, ends and D or L forms follow the SMILES beside them. *: point of attachment. X4 = CC(=O)N[C@H]1[C@H](OCCCCC(=O)NCCCNCC(=O)CCOCC(COCCC(=O)NCCCNC(=O)CCCCO[C@@H]2O[C@H](CO)[C@H](O)[C@H](O)[C@H]2NC(C)=O)(COCCC(=O)NCCCNC(=O)CCCCO[C@@H]2O[C@H](CO)[C@H](O)[C@H](O)[C@H]2NC(C)=O)NC(=O)CCCCCCC(=O)*)O[C@H](CO)[C@H](O)[C@@H]1O; X2 = CC(=O)N[C@H]1[C@H]2OC[C@](COCCOCCOCCOCCn3cc(COCC(COCc4cn(CCOCCOCCOCCOC[C@@]56CO[C@@H](O5)[C@H](NC(C)=O)[C@@H](O)[C@H]6O)nn4)NC(=O)CCOCCOCCOCCOCCC(=O)*)nn3)(O2)[C@H](O)[C@@H]1O; Bip = N[C@@H](Cc1ccc(-c2ccccc2)cc1)C(=O)O; Levulinoyl = CC(=O)CCC(=O)*; NMeA = CN[C@@H](C)C(=O)O

Key:
[1] = molecular target: T1, human PCSK9 (Homo sapiens, UniProt Q8NBP7); experiment: SPR binding to biotinylated human PCSK9 (Proteon XPR36)
T1 construct: Purified recombinant full length human PCSK9 with C-terminal biotinylated Avitag
T1 sequence (Q8NBP7 153-692): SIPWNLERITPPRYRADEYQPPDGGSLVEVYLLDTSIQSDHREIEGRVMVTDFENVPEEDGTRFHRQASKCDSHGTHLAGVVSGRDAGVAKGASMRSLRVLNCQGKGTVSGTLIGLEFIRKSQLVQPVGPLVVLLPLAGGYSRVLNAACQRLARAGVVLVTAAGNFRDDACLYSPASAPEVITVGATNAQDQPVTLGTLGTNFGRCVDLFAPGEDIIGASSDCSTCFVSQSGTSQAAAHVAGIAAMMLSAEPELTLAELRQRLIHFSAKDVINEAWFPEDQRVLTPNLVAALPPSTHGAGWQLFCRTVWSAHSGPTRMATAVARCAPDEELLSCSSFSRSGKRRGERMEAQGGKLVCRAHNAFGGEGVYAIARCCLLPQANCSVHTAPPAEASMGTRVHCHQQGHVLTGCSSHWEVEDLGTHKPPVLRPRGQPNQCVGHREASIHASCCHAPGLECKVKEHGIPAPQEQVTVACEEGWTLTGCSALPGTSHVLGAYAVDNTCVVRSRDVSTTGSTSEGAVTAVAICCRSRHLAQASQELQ
Protocol: SPR was used to obtain the binding data for PCSK9 receptor ligand compound (C5), either alone or as part of the bifunctional compounds (BFC1), respectively.
SPR Binding experiments were performed on a Proteon XPR36 instrument (Bio-Rad Laboratories). Purified recombinant full length human PCSK9 with C-terminal biotinylated Avitag was used for the assay. Biotinylated human PCSK9 was incubated with fivefold molar excess of bifunctional compound (BFC1) or compound (C5), and immobilized onto a Neutravidin coated sensor chip. (NLC chip, Bio-Rad Laboratories, Inc). After conditioning the chip by injecting running buffer (20 mM Tris pH7.5, 300 mM NaCl, 25 mM CaCl2, 2 mM betamercaptoethanol, 2% DMSO and 0.05% Tween-20) at a flow rate of 0.1 mL/min for 240 s, PCSK9 protein was injected at a protein concentration of 0.02 mg/ml in running buffer with fivefold molar excess of bifunctional compound and a flow rate of 0.03 mL/min followed by 4 washes with running buffer with 1 μM of bifunctional compound (0.1 mL/min for 60 seconds each).
To perform sandwich SPR binding assays, His-ASGPR1 (62-291) protein stocks were diluted with running buffer to a desired concentration. ASGPR was injected at a flow rate of 0.1 mL/min for 240 s and allowed to dissociate for 1200 s. Sensorgrams were recorded for association and dissociation phases. All sensorgrams were processed by subtracting the binding response recorded from a blank control surfaces (or interspot surfaces), followed by subtracting buffer blank injections from the reaction surface. Data were processed with the ProteOn Manager software (version 3.1.0.6, Bio-Rad, Inc.).

[2] = molecular target: T2, human ASGPR1 (Homo sapiens, UniProt P07306); experiment: ASGPR1 SPR direct binding (Biacore, SA chip)
T2 construct: Recombinant extracellular domain of human ASGPR1 with N-terminal biotinylated Avitag
T2 sequence (P07306 62-291 limits assumed): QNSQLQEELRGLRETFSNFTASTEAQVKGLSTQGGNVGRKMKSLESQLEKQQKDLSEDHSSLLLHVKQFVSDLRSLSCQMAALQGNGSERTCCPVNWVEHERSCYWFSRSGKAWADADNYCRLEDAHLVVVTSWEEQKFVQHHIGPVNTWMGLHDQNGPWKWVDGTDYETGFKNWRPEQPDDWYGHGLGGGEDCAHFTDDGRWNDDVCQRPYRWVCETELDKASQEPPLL
Protocol: SPR was used to obtain the binding data for ASGP receptor ligand compound (int-CC2), either alone or as part of the bifunctional compounds (BFC-13), (BFC-15) and (BFC16).
(§1) ASGPR1 SPR experiments were performed on either Biacore T200 or Biacore 8K. The assay was optimized for Biacore (Streptavidin) SA chip in running buffer consisting of 20 mM HEPES, 300 mM NaCl, 2 mM CaCl2, 0.01% tween-20, 2% DMSO, pH 7.4. Recombinant extracellular domain of human ASGPR1 with N-terminal biotinylated Avitag was diluted to 20 μg/mL in running buffer, and immobilized onto SA chip after it was preconditioned with at least four 60-second injections at 30 uL/min of 1 M NaCl/40 mM NaOH solution. Protein immobilization level varied from 500 RU to 3500 RU dependent on analytes' molecular weight, for targeted Rmax of 30 RUs. Direct binding of analytes to ASGPR1 was observed when a dose response titration of analytes in 2% DMSO was flown over the immobilized protein. Data analysis was done on either Biacore T200 Evaluation Software or Biacore Insight Evaluation Software.
SPR was used to obtain the binding data for ASGP receptor ligand compounds (int-CC2), either alone or as part of the bifunctional compounds (BFC1).
as §1, with “Biacore” for “Biacore (Streptavidin)”

[3] = Bifunctional Compound, SPR, read-out: PCSK9 KD
[4] = Bifunctional Compound (PCSK9 series), Table 9, read-out: ASGPR binding KD
[5] = Free Ligand, SPR, read-out: PCSK9 KD

SMILES | Kd [1, 3] [nM] | Kd [2, 4] [nM] | other results
CC(C)[C@@H]1NC(=O)[C@H](Cc2ccccc2)NC(=O)CSC[C@@H](C(=O)NCC(=O)N[C@@H](CCCCNC(=O)OC[C@@H]2[C@@H]3CCc4c(nnn4CCCCCCO[C@H](O[C@@H](/C=N/OCC(=O)NNC(=O)CCCO[C@@H]4O[C@H](CO[C@H]5O[C@H](CO[C@H]6O[C@H](CO)[C@@H](O)[C@H](O)[C@@H]6O[C@H]6O[C@H](COP(=O)(O)O)[C@@H](O)[C@H](O)[C@@H]6O)[C@@H](O)[C@H](O)[C@@H]5O)[C@@H](O)[C@H](O[C@H]5O[C@H](CO)[C@@H](O)[C@H](O)[C@@H]5O[C@H]5O[C@H](COP(=O)(O)O)[C@@H](O)[C@H](O)[C@@H]5O)[C@@H]4O)CO)[C@H](O)/C=N\OCC(=O)NNC(=O)CCCO[C@@H]4O[C@H](CO[C@H]5O[C@H](CO[C@H]6O[C@H](CO)[C@@H](O)[C@H](O)[C@@H]6O[C@H]6O[C@H](COP(=O)(O)O)[C@@H](O)[C@H](O)[C@@H]6O)[C@@H](O)[C@H](O)[C@@H]5O)[C@@H](O)[C@H](O[C@H]5O[C@H](CO)[C@@H](O)[C@H](O)[C@@H]5O[C@H]5O[C@H](COP(=O)(O)O)[C@@H](O)[C@H](O)[C@@H]5O)[C@@H]4O)CC[C@@H]32)C(N)=O)NC(=O)[C@@H]2CCCN2C(=O)[C@H](C)NC(=O)[C@H](CCC(=O)O)NC(=O)[C@H](C)N(C)C(=O)[C@H](Cc2ccc(-c3ccccc3)cc2)NC(=O)[C@H](C)N(C)C(=O)[C@H](Cc2ccc(-c3ccccc3)cc2)NC(=O)[C@H]([C@@H](C)O)NC(=O)[C@H]([C@@H](C)O)NC(=O)[C@@H]2CCCN2C1=O [BFC-3] |  |  | Kd [1]: 7.7 nM
CC(=O)N[C@H]1[C@H]2OC[C@](COCCOCCOCCOCCn3cc(COCC(COCc4cn(CCOCCOCCOCCOC[C@@]56CO[C@@H](O5)[C@H](NC(C)=O)[C@@H](O)[C@H]6O)nn4)NC(=O)CCOCCOCCOCCOCCC(=O)NCCCC[C@H](NC(=O)CNC(=O)[C@@H]4CSCC(=O)N[C@@H](Cc5ccccc5)C(=O)N[C@@H](C(C)C)C(=O)N5CCC[C@H]5C(=O)N[C@@H]([C@@H](C)O)C(=O)N[C@@H]([C@@H](C)O)C(=O)N[C@@H](Cc5ccc(-c6ccccc6)cc5)C(=O)N(C)[C@@H](C)C(=O)N[C@@H](Cc5ccc(-c6ccccc6)cc5)C(=O)N(C)[C@@H](C)C(=O)N[C@@H](CCC(=O)O)C(=O)N[C@@H](C)C(=O)N5CCC[C@H]5C(=O)N4)C(N)=O)nn3)(O2)[C@H](O)[C@@H]1O (some centres unmarked) [BFC-7] ({CH2CO}-FVPTT[Bip][NMeA][Bip][NMeA]EAPCGK(X2)-NH2; thioether N-13) | 3.5 | 7 | 
COC[C@@H]1NC(=O)[C@H](CCCNC(=O)CCOCCOCCOCCOCCC(=O)NCCOCc2cn(CCOCCOCCOCCOC[C@@]34CO[C@@H](O3)[C@H](NC(C)=O)[C@@H](O)[C@H]4O)nn2)N(Cc2ccc(Cl)cc2Oc2ccc(-c3cnc(CN(C)C)n3C)cc2)C(=O)C[C@@H](Cc2ccccc2)C(=O)N(C)[C@H]2CCCC[C@@H]2NC(=O)C[C@H](Cc2ccc(Cl)cc2)N(C)C1=O [BFC-12] |  | 22 | 
CC(=O)N[C@H]1[C@H](OCCCCC(=O)NCCCNCC(=O)CCOCC(COCCC(=O)NCCCNC(=O)CCCCO[C@@H]2O[C@H](CO)[C@H](O)[C@H](O)[C@H]2NC(C)=O)(COCCC(=O)NCCCNC(=O)CCCCO[C@@H]2O[C@H](CO)[C@H](O)[C@H](O)[C@H]2NC(C)=O)NC(=O)CCCCCCC(=O)NCCCC[C@H](NC(=O)CNC(=O)[C@@H]2CSCC(=O)N[C@@H](Cc3ccccc3)C(=O)N[C@@H](C(C)C)C(=O)N3CCC[C@H]3C(=O)N[C@@H]([C@@H](C)O)C(=O)N[C@@H]([C@@H](C)O)C(=O)N[C@@H](Cc3ccc(-c4ccccc4)cc3)C(=O)N(C)[C@@H](C)C(=O)N[C@@H](Cc3ccc(-c4ccccc4)cc3)C(=O)N(C)[C@@H](C)C(=O)N[C@@H](CCC(=O)O)C(=O)N[C@@H](C)C(=O)N3CCC[C@H]3C(=O)N2)C(N)=O)O[C@H](CO)[C@H](O)[C@@H]1O [BFC-1] ({CH2CO}-FVPTT[Bip][NMeA][Bip][NMeA]EAPCGK(X4)-NH2; thioether N-13) | 3.9 | 0.32 | 
COC[C@@H]1NC(=O)[C@H](CCCN)N(Cc2ccc(Cl)cc2Oc2ccc(-c3cnc(CN(C)C)n3C)cc2)C(=O)C[C@@H](Cc2ccccc2)C(=O)N(C)[C@H]2CCCC[C@@H]2NC(=O)C[C@H](Cc2ccc(Cl)cc2)N(C)C1=O [C9, (4S,7S,10S,14R,16aS,20aS)-10-(3-aminopropyl)-14-benzyl-11-(4-chloro-2-(4-(2-((dimethylamino)methyl)-1-methyl-1H-imidazol-5-yl)phenoxy)benzyl)-4-(4-chlorobenzyl)-7-(methoxymethyl)-5,16-dimethylhexadecahydrobenzo[1][1,4,7,11,14]pentaazacyclooctadecine-2,6,9,12,15 (3H)-pentaone] |  |  | Kd [1, 5]: < 1 nM
CC(=O)N[C@H]1[C@H](OCCCCC(=O)NCCCNC(=O)CCOCC(N)(COCCC(=O)NCCCNC(=O)CCCCOC2O[C@H](CO)[C@H](O)[C@H](O)[C@H]2NC(C)=O)COCCC(=O)NCCCNC(=O)CCCCO[C@@H]2O[C@H](CO)[C@H](O)[C@H](O)[C@H]2NC(C)=O)O[C@H](CO)[C@H](O)[C@@H]1O (stereo partly drawn) [int-CC2, N,N′-(10-((3-((3-(5-(((3R,4R,5R,6R)-3-acetamido-4,5-dihydroxy-6-(hydroxymethyl)tetrahydro-2H-pyran-2-yl)oxy)pentanamido)propyl)amino)-3-oxopropoxy)methyl)-10-amino-5,15-dioxo-8,12-dioxa-4,16-diazanonadecane-1,19-diyl)bis(5-(((2R,3R,4R,5R,6R)-3-acetamido-4,5-dihydroxy-6-(hydroxymethyl)tetrahydro-2H-pyran-2-yl)oxy)pentanamide)] |  |  | Kd ([2]; Free Ligand, Table 7, read-out: ASGPR KD): 0.9 nM
CC(=O)CCC(=O)NCCCC[C@H](NC(=O)CNC(=O)[C@@H]1CSCC(=O)N[C@@H](Cc2ccccc2)C(=O)N[C@@H](C(C)C)C(=O)N2CCC[C@H]2C(=O)N[C@@H]([C@@H](C)O)C(=O)N[C@@H]([C@@H](C)O)C(=O)N[C@@H](Cc2ccc(-c3ccccc3)cc2)C(=O)N(C)[C@@H](C)C(=O)N[C@@H](Cc2ccc(-c3ccccc3)cc2)C(=O)N(C)[C@@H](C)C(=O)N[C@@H](CCC(=O)O)C(=O)N[C@@H](C)C(=O)N2CCC[C@H]2C(=O)N1)C(N)=O [C5] ({CH2CO}-FVPTT[Bip][NMeA][Bip][NMeA]EAPCGK(Levulinoyl)-NH2; thioether N-13) |  |  | Kd [1, 5]: 1.2 nM
COC[C@H]1NC(=O)[C@@H](CCCNC(=O)CCCCCCC(=O)NC(COCCC(=O)NCCCNC(=O)CCCCO[C@H]2O[C@@H](CO)[C@@H](O)[C@@H](O)[C@@H]2NC(C)=O)(COCCC(=O)NCCCNC(=O)CCCCO[C@H]2O[C@@H](CO)[C@@H](O)[C@@H](O)[C@@H]2NC(C)=O)COCCC(=O)NCCCNC(=O)CCCCO[C@H]2O[C@@H](CO)[C@@H](O)[C@@H](O)[C@@H]2NC(C)=O)N(Cc2ccc(Cl)cc2Oc2ccc(-c3cnc(CN(C)C)n3C)cc2)C(=O)C[C@H](Cc2ccccc2)C(=O)N(C)[C@@H]2CCCC[C@H]2NC(=O)C[C@@H](Cc2ccc(Cl)cc2)N(C)C1=O [BFC-10] | 2.3 | 100 | 
